Results published in patent publication US20070009593A1, “Methods of treating cancer” (Indianan University Advanced Research, priority 2002, published 2007).

Columns and labels:
[1] = tested on: calpain cleavage of α-fodrin; experiment: NFF score, IHC with PP1 antibody, ritonavir treated mice; format: in vivo; conditions: 10 days
Excerpt: Differentiation of the stratum spinosum of tongue epithelium was affected, with a reduction of nuclear involution as well as an increase in the keratinized layer (FIGS. 5A-5C). […] Previous observations of the proliferative rate of tongue compared to skin in mice indicate that tongue is a more proliferative epithelium (Hume, W. J. Cell Tissue Kinet. 19:195-203 (1986)).
The antiserum specific for the calpain-dependent α-fodrin cleavage, PP1, was used at 1:100 dilution. Competition with specific peptide blocked nuclear staining. The size bar is […]. […] Arrows indicate basal layer nuclei. The vertical bar indicates maximum thickness of the keratinized layer in each image.

[2] = tested on: Caco 2 2-3 (calpastatin over-expressing); experiment: MTT assay, 96 well plate, 48 h; format: cell-based; conditions: Homo sapiens, Caco-2, read-out: Ritonavir IC50, 2-3 line
[3] = tested on: HUVEC; experiment: HUVEC cell spreading assay; format: cell-based, human; conditions: 40 μM
Protocol: Cells were fixed in 3.7% formaldehyde in PBS, blocked and stained with Oregon-green phalloidin 514 (Molecular Probes), and then digitally photographed using a Zeiss inverted fluorescence microscope equipped with a CCD camera. Cell areas were measured on the digital images using the Spot program (Diagnostic Imaging).

[4] = tested on: breast cancer lines; experiment: Annexin V/propidium iodide flow cytometry; format: cell-based, human; conditions: at the ritonavir IC50 and IC80
[5] = tested on: MDA-MB-231 (231); experiment: clonogenic assay (LD50), ritonavir sensitivity; format: cell-based, human; conditions: 231 cells
Excerpt: (§1) MCF7 and MDA-MB-435 (435) had relatively low m-calpain levels, whereas MDA-MB-231 (231), MDA-MB-436 (436) and Caco 2 had relatively high m-calpain levels.
(§2) We note that the IC50 is derived from MTT assays, while the LD50 is derived from clonogenic assays.

[6] = tested on: MCF7; experiment: clonogenic assay (LD50), ritonavir sensitivity; format: cell-based, human
Excerpt: as §1, §2

[7] = tested on: MDA-MB-436 (436); experiment: clonogenic assay (LD50), ritonavir sensitivity; format: cell-based, human; conditions: 436 cells
Excerpt: as §1, §2

[8] = tested on: MDA-MB-435 (435); experiment: clonogenic assay (LD50), ritonavir sensitivity; format: cell-based, human; conditions: 435 cells
Excerpt: as §1, §2

[9] = tested on: MDA-MB-231 human breast cancer tumors; experiment: MDA-MB-231 xenograft model; format: in vivo, nude mice; conditions: 40 mg/kg
Protocol: (Tumor size was measured by the method volume in cubic mm=length×[width]squared/2.) The tumors in this preliminary experiment took 7 weeks to grow and represent established tumors. […] FIG. 6B confirms the finding of 6A, showing that all three of the control tumors progressed. […] FIG. 6C depicts weight of the tumor when measured at days 1, 6, 9, and 13. FIG. 6D depicts weight of the animal when measured at days 1, 3, 6, 10, and 13.

[10] = tested on: Surface EGFR; experiment: surface EGFR in breast cancer lines under ritonavir; format: cell-based, human; parameters: reference not given here
[11] = tested on: H23; experiment: MTT assay, NSCLC cell line; format: cell-based; conditions: Homo sapiens, NCI-H23
[12] = patients, Gatti et al., cited from earlier work

Structure (SMILES): CC(C)c1nc(CN(C)C(=O)N[C@H](C(=O)N[C@@H](Cc2ccccc2)C[C@H](O)[C@H](Cc2ccccc2)NC(=O)OCc2cncs2)C(C)C)cs1 [Ritonavir, ritonavir]
- NFF score ([1]; tongue basal cell layer, 12 μM peak): 34%
- NFF score ([1]; tongue basal cell layer, 67 μM peak): 1%
- NFF score ([1]; ventral skin basal cell layer, 12 μM peak): 27%
- NFF score ([1]; ventral skin basal cell layer, 67 μM peak): 17%
- IC50 [2]: 20 µM
- reduction of cell area ([3]; 1 hour of spreading): 15%
- cell area ([3]; 1 hour spreading on fibronectin): 4100±160 μm^2
- apoptosis [4]: increased apoptosis
- LD50 [5]: 60 μm
- LD50 [6]: 25 µM
- LD50 [7]: 55 µM
- LD50 [8]: 16 µM
- growth rate of tumors ([9]; nude mice, FIG. 6C): decrease the growth rate of tumors
- weight of the animal ([9]; nude mice, FIG. 6D): without causing wasting of the mice
- tumor response ([9]; three established tumors, FIG. 6A): two tumors of three exhibited stable disease
- Surface EGFR (Ritonavir) ([10]; MCF7, ritonavir treatment): 1
- Surface EGFR (Ritonavir) ([10]; MDA-231, ritonavir treatment): 0.5
- Surface EGFR (Ritonavir) ([10]; MDA-436, ritonavir treatment): 0.5
- Surface EGFR (Ritonavir) ([10]; SKBR-3, ritonavir treatment): 0.36
- Surface EGFR (Ritonavir) ([10]; T47D, ritonavir treatment): 1
- IC50 [11]: 44 µM
- peak plasma ritonavir concentrations ([12]; AIDS 13:2083-2089): 18.6 to 46 µM
- trough concentrations ([12]; AIDS 13:2083-2089): 10.4 to 17.5 µM
- Cmax ([12]; read-out: upper boundary of ritonavir Cmax plasma concentrations): ~45 µM
